Test results published in patent publication US20170355687A1, “ANTIBACTERIAL BENZOTHIAZOLE DERIVATIVES” (Actelion Pharmaceuticals Ltd, priority 2014, published 2017).
Converted amounts (≈) assume the structure as drawn.

Experiments:
Assay in all cases: Bacterial growth minimal inhibitory concentration, microdilution in cation-adjusted Mueller-Hinton Broth (CLSI M7-A7)
Format in all cases: cell-based
K. Pneumoniae A-651 = details: multiply-resistant (in particular quinolone-resistant) strain; for MIC: Klebsiella pneumoniae, read-out: MIC for K. Pneumoniae A-651
Procedure: (§1) Minimal Inhibitory Concentrations (MICs; mg/L) were determined in cation-adjusted Mueller-Hinton Broth by a microdilution method following the description given in “Methods for Dilution Antimicrobial Susceptibility Tests for Bacteria that Grow Aerobically”, Approved standard, 7th ed., Clinical and Laboratory Standards Institute (CLSI) Document M7-A7, Wayne, Pa., USA (2006).
(§2) All Example compounds were tested against several Gram-positive and Gram-negative bacteria. […] K pneumoniae A-651 is a multiply-resistant (in particular quinolone-resistant) strain, while E. coli ATCC25922 and P. aeruginosa ATCC27853 are quinolone-sensitive strains.

E. coli ATCC25922 = details: quinolone-sensitive strain; for MIC: Escherichia coli, ATCC25922, read-out: MIC for E. coli ATCC25922
Procedure: as §1, §2

P. aeruginosa ATCC27853 = details: quinolone-sensitive strain; for MIC: Pseudomonas aeruginosa, ATCC27853, read-out: MIC for P. aeruginosa ATCC27853
Procedure: as §1, §2

| MIC (K. Pneumoniae A-651) [µg/mL] | MIC (E. coli ATCC25922) [µg/mL] | MIC (P. aeruginosa ATCC27853) [µg/mL] | MIC for K. Pneumoniae A-651 (K. Pneumoniae A-651) [µg/mL] | MIC for E. coli ATCC25922 (E. coli ATCC25922) [µg/mL] | MIC for P. aeruginosa ATCC27853 (P. aeruginosa ATCC27853) [µg/mL] | SMILES |
| --- | --- | --- | --- | --- | --- | --- |
| 0.25 (≈ 0.538 µM) | ≤ 0.063 | 0.25 (≈ 0.538 µM) | – | – | – | C[C@@](CCc1nc2ccc(C#CC#C[C@H]3C[C@]3(F)CO)cc2s1)(C(=O)NO)S(C)(=O)=O (relative stereo) [Example 24, (R)-4-(6-(((1R*,2R*)-2-fluoro-2-(hydroxymethyl)cyclopropyl)buta-1,3-diyn-1-yl)benzo[d]thiazol-2-yl)-N-hydroxy-2-methyl-2-(methylsulfonyl)butanamide] |
| 8 (≈ 19.7 µM) | 0.5 (≈ 1.23 µM) | 1 (≈ 2.46 µM) | – | – | – | CC(CCc1nc2ccc(C#CC#CCO)cc2s1)(C(=O)NO)S(C)(=O)=O (racemic) [RE4, (RS)-N-hydroxy-4-(6-(5-hydroxypenta-1,3-diyn-1-yl)benzo[d]thiazol-2-yl)-2-methyl-2-(methylsulfonyl)butanamide] |
| 0.125 (≈ 0.271 µM) | 0.063 (≈ 0.137 µM) | 0.5 (≈ 1.09 µM) | – | – | – | C[C@]1(CO)C[C@@H]1C#CC#Cc1ccc2nc(CC[C@](C)(C(=O)NO)S(C)(=O)=O)sc2c1 [Example 26, (R)-N-hydroxy-4-(6-(((1R,2S)-2-(hydroxymethyl)-2-methylcyclopropyl)buta-1,3-diyn-1-yl)benzo[d]thiazol-2-yl)-2-methyl-2-(methylsulfonyl)butanamide] |
| – | – | – | 2 | 1 | 2 | C[C@@](CCc1nc2ccc(C#CC#C[C@]3(O)C[C@@H](CO)C3)cc2s1)(C(=O)NO)S(C)(=O)=O (relative stereo) [Example 21, (R)-N-hydroxy-4-(6-((cis-1-hydroxy-3-(hydroxymethyl)cyclobutyl)buta-1,3-diyn-1-yl)benzo[d]thiazol-2-yl)-2-methyl-2-(methylsulfonyl)butanamide] |
| 0.25 (≈ 0.552 µM) | ≤ 0.063 | 2 (≈ 4.42 µM) | – | – | – | COc1ccc(-c2ccc3nc(CC[C@](C)(C(=O)NO)S(C)(=O)=O)sc3c2)c(F)c1 [Example 2, (R)-4-(6-(2-fluoro-4-methoxyphenyl)benzo[d]thiazol-2-yl)-N-hydroxy-2-methyl-2-(methylsulfonyl)butanamide] |
| – | – | – | 0.5 | 0.25 | 1 | C[C@@](CCc1nc2ccc(C#CC#C[C@@H]3C[C@@H](O)[C@@H](O)C3)cc2s1)(C(=O)NO)S(C)(=O)=O [Example 13, (R)-4-(6-(((1s,3R,4S)-3,4-dihydroxycyclopentyl)buta-1,3-diyn-1-yl)benzo[d]thiazol-2-yl)-N-hydroxy-2-methyl-2-(methylsulfonyl)butanamide] |
| 0.5 (≈ 1.15 µM) | 0.5 (≈ 1.15 µM) | 1 (≈ 2.3 µM) | – | – | – | CC(C)(O)C#CC#Cc1ccc2nc(CC[C@](C)(C(=O)NO)S(C)(=O)=O)sc2c1 [Example 4, (R)-N-hydroxy-4-(6-(5-hydroxy-5-methylhexa-1,3-diyn-1-yl)benzo[d]thiazol-2-yl)-2-methyl-2-(methylsulfonyl)butanamide] |
| 8 (≈ 16.8 µM) | 4 (≈ 8.41 µM) | 4 (≈ 8.41 µM) | – | – | – | C[C@@](CCc1nc2ccc(C#CC#C[C@@H]3CC[C@@H](N)CO3)cc2s1)(C(=O)NO)S(C)(=O)=O [Example 16, (R)-4-(6-(((2S,5R)-5-aminotetrahydro-2H-pyran-2-yl)buta-1,3-diyn-1yl)benzo[d]thiazol-2-yl)-N-hydroxy-2-methyl-2-(methylsulfonyl)butanamide] |
| 0.5 (≈ 1.08 µM) | 0.5 (≈ 1.08 µM) | 1 (≈ 2.16 µM) | – | – | – | C[C@@](CCc1nc2ccc(C#CC#CC3(CO)COC3)cc2s1)(C(=O)NO)S(C)(=O)=O [Example 20, (R)-N-hydroxy-4-(6-((3-(hydroxymethyl)oxetan-3-yl)buta-1,3-diyn-1-yl)benzo[d]thiazol-2-yl)-2-methyl-2-(methylsulfonyl)butanamide] |
| 1 (≈ 2 µM) | 4 (≈ 7.99 µM) | 8 (≈ 16 µM) | – | – | – | C[C@@](CCc1nc2ccc(C#Cc3ccc(C4(O)COC4)cc3)cc2s1)(C(=O)NO)S(C)(=O)=O [Example 3, (R)-N-hydroxy-4-(6-((4-(3-hydroxyoxetan-3-yl)phenyl)ethynyl)benzo[d]thiazol-2-yl)-2-methyl-2-(methylsulfonyl)butanamide] |
| 2 (≈ 4.6 µM) | 0.25 (≈ 0.575 µM) | 16 (≈ 36.8 µM) | – | – | – | COc1ccc(-c2ccc3nc(CCC(C)(C(=O)NO)S(C)(=O)=O)sc3c2)cc1 (racemic) [RE1, (RS)-N-hydroxy-4-(6-(4-methoxyphenyl)benzo[d]thiazol-2-yl)-2-methyl-2-(methylsulfonyl)butanamide] |
| 1 (≈ 2.04 µM) | 0.5 (≈ 1.02 µM) | 1 (≈ 2.04 µM) | – | – | – | C[C@@](CCc1nc2ccc(C#CC#CC3CN(C(=O)CO)C3)cc2s1)(C(=O)NO)S(C)(=O)=O [Example 25, (R)-N-hydroxy-4-(6-((1-(2-hydroxyacetyl)azetidin-3-yl)buta-1,3-diyn-1-yl)benzo[d]thiazol-2-yl)-2-methyl-2-(methylsulfonyl)butanamide] |
